Measured values taken from patent publication US20210338846A1, “COMPETITIVE PROSTATE-SPECIFIC MEMBRANE ANTIGEN (PSMA) BINDING AGENTS FOR REDUCTION OF NON-TARGET ORGAN UPTAKE OF RADIOLABELED PSMA INHIBITORS FOR PSMA POSITIVE TUMOR IMAGING AND RADIOPHARMACEUTICAL THERAPY” (The Johns Hopkins University, priority 2018, published 2021).
Where “and” joins values, the source holds several entries; their conditions need not be identical. Equal values may be shown once. Read-outs that look alike come from different tables or passages of the source.

Experiments:
[1] = tested on: PSMA+ PC-3 PiP and PSMA− PC-3 flu tumors; type: in vivo
[2] = tested on: PSMA+ PC-3 PiP and PSMA− PC-3 flu tumors
[3] = 2 Hour (head; title: One-Hour), No CI
[4] = 2 Hour (head; title: One-Hour), co-injection 0.5 nmole VK-02-90
[5] = 2 Hour (head; title: One-Hour), co-injection 1.0 nmole VK-02-90
[6] = 2 Hour (head; title: One-Hour), co-injection 5.0 nmole VK-02-90
[7] = 4 Hour, co-injection 0.5 nmole VK-02-90
[8] = 4 Hour, co-injection 1.0 nmole VK-02-90
[9] = 4 Hour, co-injection 5.0 nmole VK-02-90
[10] = 1 h, co-injection 0.5 nmole YC-I-27
[11] = 1 h, co-injection 1.0 nmole YC-I-27
[12] = 1 h, co-injection 5.0 nmole YC-I-27
[13] = 4 h, co-injection 0.5 nmole YC-I-27
[14] = 4 h, co-injection 1.0 nmole YC-I-27
[15] = 4 h, co-injection 5.0 nmole YC-I-27
[16] = 24 h, co-injection 0.5 nmole YC-I-27

Structure (SMILES): O=C([O-])CN1CCN(CC(=O)[O-])CCN(CC(=O)NCCCCC(=O)N(CCCC[C@H](NC(=O)N[C@@H](CCC(=O)O)C(=O)O)C(=O)O)Cc2ccc([125I])cc2)CCN(CC(=O)[O-])CC1.[Lu+3] [[^125I]VK-02-90-Lu]
- Biodistribution: Blood [1, 3]: 1.1 ± 0.1 % injected dose/gram
- Biodistribution: Flu tumor [1, 3]: 1.0 ± 0.2 % injected dose/gram
- Biodistribution: Lacrimal gland [1, 3]: 2.1 ± 0.9 % injected dose/gram
- Biodistribution: PiP tumor [1, 3]: 26 ± 3 % injected dose/gram
- Biodistribution: Salivary gland [1, 3]: 2.3 ± 0.5 % injected dose/gram
- Biodistribution: kidneys [1, 3]: 129 ± 15 % injected dose/gram
- Biodistribution: spleen [1, 3]: 4.3 ± 0.9 % injected dose/gram
- Biodistribution: stomach [1, 3]: 1.7 ± 0.3 % injected dose/gram
- Biodistribution: Blood [1, 4]: 0.4 ± 0.1 % injected dose/gram
- Biodistribution: Flu tumor [1, 4]: 0.6 ± 0.3 % injected dose/gram
- Biodistribution: Lacrimal gland [1, 4]: 0.4 ± 0.1 % injected dose/gram
- Biodistribution: PiP tumor [1, 4]: 37 ± 7 % injected dose/gram
- Biodistribution: Salivary gland [1, 4]: 0.2 ± 0.03 % injected dose/gram
- Biodistribution: kidneys [1, 4]: 10 ± 2.5 % injected dose/gram
- Biodistribution: spleen [1, 4]: 1.1 ± 0.4 % injected dose/gram
- Biodistribution: stomach [1, 4]: 0.2 ± 0.1 % injected dose/gram
- Biodistribution: Blood [1, 5]: 0.4 ± 0.1 % injected dose/gram
- Biodistribution: Flu tumor [1, 5]: 0.5 ± 0.1 % injected dose/gram
- Biodistribution: Lacrimal gland [1, 5]: 0.4 ± 0.1 % injected dose/gram
- Biodistribution: PiP tumor [1, 5]: 35 ± 9 % injected dose/gram
- Biodistribution: Salivary gland [1, 5]: 0.2 ± 0.06 % injected dose/gram
- Biodistribution: kidneys [1, 5]: 6.5 ± 0.9 % injected dose/gram
- Biodistribution: spleen [1, 5]: 1.1 ± 0.4 % injected dose/gram
- Biodistribution: stomach [1, 5]: 0.2 ± 0.04 % injected dose/gram
- Biodistribution: Blood [1, 6]: 0.5 ± 0.1 % injected dose/gram
- Biodistribution: Flu tumor [1, 6]: 0.9 ± 0.3 % injected dose/gram
- Biodistribution: Lacrimal gland [1, 6]: 0.4 ± 0.03 % injected dose/gram
- Biodistribution: PiP tumor [1, 6]: 24 ± 4 % injected dose/gram
- Biodistribution: Salivary gland [1, 6]: 0.3 ± 0.1 % injected dose/gram
- Biodistribution: kidneys [1, 6]: 4.2 ± 0.5 % injected dose/gram
- Biodistribution: spleen [1, 6]: 0.7 ± 0.2 % injected dose/gram
- Biodistribution: stomach [1, 6]: 0.2 ± 0.06 % injected dose/gram
- Biodistribution: Blood ([1]; 4 Hour, No CI): 0.3 ± 0.2 % injected dose/gram
- Biodistribution: Flu tumor ([1]; 4 Hour, No CI): 0.2 ± 0.1 % injected dose/gram
- Biodistribution: Lacrimal gland ([1]; 4 Hour, No CI): 0.4 ± 0.2 % injected dose/gram
- Biodistribution: PiP tumor ([1]; 4 Hour, No CI): 27 ± 8 % injected dose/gram
- Biodistribution: Salivary gland ([1]; 4 Hour, No CI): 1.8 ± 0.2 % injected dose/gram
- Biodistribution: kidneys ([1]; 4 Hour, No CI): 10 ± 2.5 % injected dose/gram
- Biodistribution: spleen ([1]; 4 Hour, No CI): 0.6 ± 0.2 % injected dose/gram
- Biodistribution: stomach ([1]; 4 Hour, No CI): 0.8 ± 0.5 % injected dose/gram
- Biodistribution: Blood [1, 7]: 0.02 ± 0.01 % injected dose/gram
- Biodistribution: Flu tumor [1, 7]: 0.1 ± 0.02 % injected dose/gram
- Biodistribution: Lacrimal gland [1, 7]: 0.1 ± 0.03 % injected dose/gram
- Biodistribution: PiP tumor [1, 7]: 25 ± 2 % injected dose/gram
- Biodistribution: Salivary gland [1, 7]: 0.08 ± 0.04 % injected dose/gram
- Biodistribution: kidneys [1, 7]: 2.1 ± 0.7 % injected dose/gram
- Biodistribution: spleen [1, 7]: 0.2 ± 0.1 % injected dose/gram
- Biodistribution: stomach [1, 7]: 0.06 ± 0.01 % injected dose/gram
- Biodistribution: Blood [1, 8]: 0.2 ± 0.01 % injected dose/gram
- Biodistribution: Flu tumor [1, 8]: 0.1 ± 0.03 % injected dose/gram
- Biodistribution: Lacrimal gland [1, 8]: 0.1 ± 0.05 % injected dose/gram
- Biodistribution: PiP tumor [1, 8]: 27 ± 4 % injected dose/gram
- Biodistribution: Salivary gland [1, 8]: 0.1 ± 0.02 % injected dose/gram
- Biodistribution: kidneys [1, 8]: 1.4 ± 0.4 % injected dose/gram
- Biodistribution: spleen [1, 8]: 0.2 ± 0.1 % injected dose/gram
- Biodistribution: stomach [1, 8]: 0.1 ± 0.03 % injected dose/gram
- Biodistribution: Blood [1, 9]: 0 % injected dose/gram
- Biodistribution: Flu tumor [1, 9]: 0.1 ± 0.01 % injected dose/gram
- Biodistribution: Lacrimal gland [1, 9]: 0.1 ± 0.1 % injected dose/gram
- Biodistribution: PiP tumor [1, 9]: 19 ± 2 % injected dose/gram
- Biodistribution: Salivary gland [1, 9]: 0.05 ± 0.02 % injected dose/gram
- Biodistribution: kidneys [1, 9]: 0.9 ± 0.3 % injected dose/gram
- Biodistribution: spleen [1, 9]: 0.15 ± 0.08 % injected dose/gram
- Biodistribution: stomach [1, 9]: 0.1 ± 0.04 % injected dose/gram
- Biodistribution: Blood ([2]; 1 h, No CI): 1.1 ± 0.1 % injected dose/gram
- Biodistribution: Flu tumor ([2]; 1 h, No CI): 1.0 ± 0.2 % injected dose/gram
- Biodistribution: Lacrimal gland ([2]; 1 h, No CI): 2.1 ± 0.9 % injected dose/gram
- Biodistribution: PiP tumor ([2]; 1 h, No CI): 26 ± 3 % injected dose/gram
- Biodistribution: Salivary gland ([2]; 1 h, No CI): 2.3 ± 0.5 % injected dose/gram
- Biodistribution: kidneys ([2]; 1 h, No CI): 129 ± 15 % injected dose/gram
- Biodistribution: spleen ([2]; 1 h, No CI): 4.3 ± 0.9 % injected dose/gram
- Biodistribution: stomach ([2]; 1 h, No CI): 1.7 ± 0.3 % injected dose/gram
- Biodistribution: Blood [2, 10]: 1.1 ± 0.1 % injected dose/gram
- Biodistribution: Flu tumor [2, 10]: 1.0 ± 0.3 % injected dose/gram
- Biodistribution: Lacrimal gland [2, 10]: 0.5 ± 0.1 % injected dose/gram
- Biodistribution: PiP tumor [2, 10]: 42 ± 4 % injected dose/gram and 42 ± 4.2 % injected dose/gram
- Biodistribution: Salivary gland [2, 10]: 3.2 ± 0.7 % injected dose/gram
- Biodistribution: kidneys [2, 10]: 4.2 ± 1.3 % injected dose/gram
- Biodistribution: spleen [2, 10]: 0.8 ± 0.2 % injected dose/gram
- Biodistribution: stomach [2, 10]: 1.8 ± 0.2 % injected dose/gram
- Biodistribution: Blood [2, 11]: 1.0 ± 0.1 % injected dose/gram
- Biodistribution: Flu tumor [2, 11]: 0.8 ± 0.2 % injected dose/gram
- Biodistribution: Lacrimal gland [2, 11]: 0.6 ± 0.05 % injected dose/gram
- Biodistribution: PiP tumor [2, 11]: 29 ± 2 % injected dose/gram
- Biodistribution: Salivary gland [2, 11]: 2.9 ± 0.4 % injected dose/gram
- Biodistribution: kidneys [2, 11]: 2.4 ± 0.8 % injected dose/gram
- Biodistribution: spleen [2, 11]: 0.6 ± 0.1 % injected dose/gram
- Biodistribution: stomach [2, 11]: 1.8 ± 0.3 % injected dose/gram
- Biodistribution: Blood [2, 12]: 1.1 ± 0.2 % injected dose/gram
- Biodistribution: Flu tumor [2, 12]: 0.8 ± 0.2 % injected dose/gram
- Biodistribution: Lacrimal gland [2, 12]: 1.1 ± 0.6 % injected dose/gram
- Biodistribution: PiP tumor [2, 12]: 20 ± 3 % injected dose/gram
- Biodistribution: Salivary gland [2, 12]: 5.1 ± 1.7 % injected dose/gram
- Biodistribution: kidneys [2, 12]: 2.3 ± 0.7 % injected dose/gram
- Biodistribution: spleen [2, 12]: 0.7 ± 0.1 % injected dose/gram
- Biodistribution: stomach [2, 12]: 2.2 ± 0.7 % injected dose/gram
- Biodistribution: Blood ([2]; 4 h, No CI): 0.3 ± 0.2 % injected dose/gram
- Biodistribution: Flu tumor ([2]; 4 h, No CI): 0.2 ± 0.1 % injected dose/gram and 0.25 ± 0.1 % injected dose/gram
- Biodistribution: Lacrimal gland ([2]; 4 h, No CI): 0.4 ± 0.2 % injected dose/gram
- Biodistribution: PiP tumor ([2]; 4 h, No CI): 27 ± 7 % injected dose/gram and 27 ± 8 % injected dose/gram
- Biodistribution: Salivary gland ([2]; 4 h, No CI): 1.8 ± 0.2 % injected dose/gram
- Biodistribution: kidneys ([2]; 4 h, No CI): 9.5 ± 2.5 % injected dose/gram and 10 ± 2.5 % injected dose/gram
- Biodistribution: spleen ([2]; 4 h, No CI): 0.6 ± 0.2 % injected dose/gram
- Biodistribution: stomach ([2]; 4 h, No CI): 0.8 ± 0.5 % injected dose/gram
- Biodistribution: Blood [2, 13]: 0.4 ± 0.06 % injected dose/gram
- Biodistribution: Flu tumor [2, 13]: 0.3 ± 0.1 % injected dose/gram
- Biodistribution: Lacrimal gland [2, 13]: 0.2 ± 0.02 % injected dose/gram and 0.4 ± 0.02 % injected dose/gram
- Biodistribution: PiP tumor [2, 13]: 24 ± 3 % injected dose/gram
- Biodistribution: Salivary gland [2, 13]: 3.3 ± 0.8 % injected dose/gram
- Biodistribution: kidneys [2, 13]: 0.9 ± 0.1 % injected dose/gram
- Biodistribution: spleen [2, 13]: 0.25 ± 0.07 % injected dose/gram
- Biodistribution: stomach [2, 13]: 1.3 ± 0.2 % injected dose/gram
- Biodistribution: Blood [2, 14]: 0.4 ± 0.05 % injected dose/gram
- Biodistribution: Flu tumor [2, 14]: 0.3 ± 0.1 % injected dose/gram
- Biodistribution: Lacrimal gland [2, 14]: 0.2 ± 0.03 % injected dose/gram
- Biodistribution: PiP tumor [2, 14]: 24 ± 1 % injected dose/gram
- Biodistribution: Salivary gland [2, 14]: 3.2 ± 0.7 % injected dose/gram
- Biodistribution: kidneys [2, 14]: 0.6 ± 0.03 % injected dose/gram
- Biodistribution: spleen [2, 14]: 0.2 ± 0.04 % injected dose/gram
- Biodistribution: stomach [2, 14]: 1.2 ± 0.2 % injected dose/gram
- Biodistribution: Blood [2, 15]: 0.4 ± 0.1 % injected dose/gram
- Biodistribution: Flu tumor [2, 15]: 0.3 ± 0.1 % injected dose/gram
- Biodistribution: Lacrimal gland [2, 15]: 0.5 ± 0.5 % injected dose/gram
- Biodistribution: PiP tumor [2, 15]: 14 ± 5 % injected dose/gram
- Biodistribution: Salivary gland [2, 15]: 5.0 ± 1.4 % injected dose/gram
- Biodistribution: kidneys [2, 15]: 0.7 ± 0.1 % injected dose/gram
- Biodistribution: spleen [2, 15]: 0.3 ± 0.06 % injected dose/gram
- Biodistribution: stomach [2, 15]: 1.6 ± 0.4 % injected dose/gram
- Biodistribution: Blood ([2]; 24 h, No CI): 0.01 ± 0.01 % injected dose/gram
- Biodistribution: Flu tumor ([2]; 24 h, No CI): 0.05 ± 0.01 % injected dose/gram
- Biodistribution: Lacrimal gland ([2]; 24 h, No CI): 0.05 ± 0.04 % injected dose/gram
- Biodistribution: PiP tumor ([2]; 24 h, No CI): 18 ± 6 % injected dose/gram
- Biodistribution: Salivary gland ([2]; 24 h, No CI): 0.02 ± 0.08 % injected dose/gram
- Biodistribution: kidneys ([2]; 24 h, No CI): 1.3 ± 0.7 % injected dose/gram
- Biodistribution: spleen ([2]; 24 h, No CI): 0.1 ± 0.05 % injected dose/gram
- Biodistribution: stomach ([2]; 24 h, No CI): 0.01 ± 0.04 % injected dose/gram
- Biodistribution: Blood [2, 16]: 0.1 ± 0.01 % injected dose/gram
- Biodistribution: Flu tumor [2, 16]: 0.04 ± 0.01 % injected dose/gram
- Biodistribution: Lacrimal gland [2, 16]: 0.03 ± 0.02 % injected dose/gram
- Biodistribution: PiP tumor [2, 16]: 16 ± 4 % injected dose/gram
- Biodistribution: Salivary gland [2, 16]: 0.02 ± 0.01 % injected dose/gram
- Biodistribution: kidneys [2, 16]: 0.5 ± 0.2 % injected dose/gram
- Biodistribution: spleen [2, 16]: 0.04 ± 0.01 % injected dose/gram
- Biodistribution: stomach [2, 16]: 0.04 ± 0.04 % injected dose/gram
